Earlier results, collected in US20180177198A1, “PEDICULICIDE FORMULATION BASED ON EUCALYPTUS GLOBULUS ESSENTIAL OIL” (UNIVERSIDAD DE CONCEPCION, priority 2015, published 2018).

Tests used:
[1] = test system: lice
[2] = test system: P. capitis
[3] = not given; remark: listed apart in the source
[4] = test system: Pediculus humanus capitis resistant to permethrin
[5] = test system: pediculosis; settings: in vivo

## CC1=CC[C@@H](C(C)(C)O)CC1 [1-α-terpineol]
[1]
  pediculicidal effectiveness compared with phenothrin or pyrethrum: as effective as

## Cl[C@H]1[C@H](Cl)[C@@H](Cl)[C@@H](Cl)[C@H](Cl)[C@H]1Cl [Lindane, gamma benzene hexachloride]
[2]
  ovicidal activity: lacks ovicidal activity
In vivo
  average life in the blood stream: 24 h
Topical use
  absorbed by passage into the blood stream: Approximately 10%
[3]; adults
  toxicity range, can be lethal: 28 g
[3]; children below the age of 4, at 1%
  dose causing respiratory depression: 5 mL

## α-dodelactone
[4]
  repellent activity: significant repellent activity

## c1ccc2[nH]c(-c3cscn3)nc2c1 [Thiabendazole]
In vivo
  average life (elimination after percutaneous absorption): 70 min

## CC1=CC=C(C(C)C)CC1 [α-terpinene]
[1]
  pediculicidal effectiveness compared with phenothrin or pyrethrum: as effective as

## I-phellandrene
[1]
  pediculicidal effectiveness compared with phenothrin or pyrethrum: as effective as

## c1ccc([C@H]2CN3CCSC3=N2)cc1 [Levamisol]
[5]
  effectiveness in treatment of pediculosis: 19%

## CC12CCC(CC1)C(C)(C)O2 [1.8-cineol]
[1]
  pediculicidal effectiveness compared with phenothrin or pyrethrum: as effective as

## C=C1C(O)CC2CC1C2(C)C (centres unmarked) [(E)-pinocarveol]
[1]
  pediculicidal effectiveness compared with phenothrin or pyrethrum: as effective as

## CC1=CCC2CC1C2(C)C (stereo not drawn) [(−) α-pinene]
[1]
  pediculicidal effectiveness compared with phenothrin or pyrethrum: as effective as
